In US20260347364A1, “PYRAZOLO[4,3-F]QUINAZOLINE DERIVATIVES AS MODULATORS OF G12D MUTANT KRAS USEFUL FOR THE TREATMENT OF CANCER” (JAZZ PHARMACEUTICALS IRELAND LTD., priority 2023, published 2026) one finds IC50 data, which are given here for 18 molecules.

A value given as a limit tells only on which side of the number the result lay.

In one assay the target is T1, KRAS G12D (Homo sapiens, UniProt P01116, G12D).
T1 construct: aa1-188 KRAS WT, HRAS WT, NRAS WT, or KRAS containing the G12D
Description: HTRF nucleotide exchange assay, KRAS G12D. Type of assay: biochemical. The note with it: HTRF nucleotide exchange assay (NEA), class symbols.

Another assay concerns the target T2, KRAS WT (Homo sapiens, UniProt P01116).
T2 construct: aa1-188 KRAS WT
Description: HTRF nucleotide exchange assay, KRAS WT. The note with it: HTRF nucleotide exchange assay (NEA), class symbols. Type of assay: biochemical. (TR-FRET usually uses a lanthanide donor and a delayed reading to cut background.)

T1 sequence (P01116 1-188 isoform P01116-2 G12D): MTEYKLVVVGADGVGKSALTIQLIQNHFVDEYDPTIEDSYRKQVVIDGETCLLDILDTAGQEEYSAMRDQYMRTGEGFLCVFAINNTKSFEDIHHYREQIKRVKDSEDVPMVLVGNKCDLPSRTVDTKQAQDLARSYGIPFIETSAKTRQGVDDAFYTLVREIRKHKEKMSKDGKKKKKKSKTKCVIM
T2 sequence (P01116 1-188 isoform P01116-2): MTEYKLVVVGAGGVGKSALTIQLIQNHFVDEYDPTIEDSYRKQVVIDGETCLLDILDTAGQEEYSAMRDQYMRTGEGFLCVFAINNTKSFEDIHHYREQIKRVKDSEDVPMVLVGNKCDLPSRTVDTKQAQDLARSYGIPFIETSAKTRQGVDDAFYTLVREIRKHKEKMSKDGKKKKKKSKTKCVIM

For orientation: IC50 means the concentration that gives 50% inhibition. Low readings indicate greater potency, high ones weaker potency. For the molecule `CCc1c(F)ccc2cc(O)cc(-c3c(F)c4nc(OC[C@@]56CCCN5C[C@H](F)C6)nc(N5C[C@H]6COC[C@H]6C5)c4c4cn(C)nc34)c12` [Example 174, 5-ethyl-6-fluoro-4-[5-fluoro-2-methyl-9-[(3aR,6aS)-1,3,3a,4,6,6a-hexahydrofuro[3,4-c]pyrrol-5-yl]-7-[[(2R,8S)-2-fluoro-1,2,3,5,6,7-hexahydropyrrolizin-8-yl]methoxy]pyrazolo[4,3-f]quinazolin-4-yl]naphthalen-2-ol], the IC50 on KRAS G12D and against KRAS WT was not above 0.01 µM each time.

In the case of `CCc1c(F)ccc2cc(O)cc(-c3c(F)c4nc(OC[C@@]56CCCN5C[C@H](F)C6)nc(N5C[C@H]6COC[C@@H]6C5)c4c4cn(C)nc34)c12` [Example 175, 5-ethyl-6-fluoro-4-[5-fluoro-2-methyl-9-[(3aS,6aS)-1,3,3a,4,6,6a-hexahydrofuro[3,4-c]pyrrol-5-yl]-7-[[(2R,8S)-2-fluoro-1,2,3,5,6,7-hexahydropyrrolizin-8-yl]methoxy]pyrazolo[4,3-f]quinazolin-4-yl]naphthalen-2-ol], the half-inhibitory concentration (IC50) is 0.1 to 10 µM against KRAS G12D and 0.01 to 0.1 µM at KRAS WT.

As for `CCc1c(F)ccc2cc(O)cc(-c3c(F)c4nc(OC[C@@]56CCCN5C[C@H](F)C6)nc(N5CCCC(C#N)C5)c4c4cn(C)nc34)c12` (stereo partly drawn) [Example 176, 1-[4-(8-ethyl-7-fluoro-3-hydroxy-1-naphthyl)-5-fluoro-2-methyl-7-[[(2R,8S)-2-fluoro-1,2,3,5,6,7-hexahydropyrrolizin-8-yl]methoxy]pyrazolo[4,3-f]quinazolin-9-yl]piperidine-3-carbonitrile], the IC50 at KRAS G12D and against KRAS WT was not above 0.01 µM each time.

With `CCc1c(F)ccc2cc(O)cc(-c3c(F)c4nc(OC[C@@]56CCCN5C[C@H](F)C6)nc(N5CCC(O)CC5)c4c4cn(C)nc34)c12` [Example 177, 1-[4-(8-ethyl-7-fluoro-3-hydroxy-1-naphthyl)-5-fluoro-2-methyl-7-[[(2R,8S)-2-fluoro-1,2,3,5,6,7-hexahydropyrrolizin-8-yl]methoxy]pyrazolo[4,3-f]quinazolin-9-yl]piperidin-4-ol], the IC50 against KRAS G12D and against KRAS WT was not above 0.01 µM each time.

In the case of `CCc1c(F)ccc2cc(O)cc(-c3c(F)c4nc(OC[C@@]56CCCN5C[C@H](F)C6)nc(N5CCC[C@@H](O)C5)c4c4cn(C)nc34)c12` [Example 178, (3R)-1-[4-(8-ethyl-7-fluoro-3-hydroxy-1-naphthyl)-5-fluoro-2-methyl-7-[[(2R,8S)-2-fluoro-1,2,3,5,6,7-hexahydropyrrolizin-8-yl]methoxy]pyrazolo[4,3-f]quinazolin-9-yl]piperidin-3-ol], the IC50 on KRAS G12D and against KRAS WT was not above 0.01 µM throughout.

On to `CCc1c(F)ccc2cc(O)cc(-c3c(F)c4nc(OC[C@@]56CCCN5C[C@H](F)C6)nc(N5CC6CCC5CN6)c4c4cn(C)nc34)c12` (stereo partly drawn) [Example 179, 4-[9-(2,5-diazabicyclo[2.2.2]octan-2-yl)-5-fluoro-2-methyl-7-[[(2R,8S)-2-fluoro-1,2,3,5,6,7-hexahydropyrrolizin-8-yl]methoxy]pyrazolo[4,3-f]quinazolin-4-yl]-5-ethyl-6-fluoro-naphthalen-2-ol], for which the IC50 against KRAS G12D and at KRAS WT was not above 0.01 µM in each case.

Regarding `CCc1c(F)ccc2cc(O)cc(-c3c(C)c4nc(OC[C@@]56CCCN5C[C@H](F)C6)nc(N5CCCn6nc(C(=O)N(C)C)c(F)c6C5)c4c4cn(C)nc34)c12` [Example 180, 5-[4-(8-ethyl-7-fluoro-3-hydroxy-1-naphthyl)-2,5-dimethyl-7-[[(2R,8S)-2-fluoro-1,2,3,5,6,7-hexahydropyrrolizin-8-yl]methoxy]pyrazolo[4,3-f]quinazolin-9-yl]-3-fluoro-N,N-dimethyl-4,6,7,8-tetrahydropyrazolo[1,5-a][1,4]diazepine-2-carboxamide], the concentration for half-maximal inhibition (IC50) against KRAS G12D and on KRAS WT was not above 0.01 µM each time.

As to `CCNC(=O)c1cc2n(n1)CCCN(c1nc(OC[C@@]34CCCN3C[C@H](F)C4)nc3c(C)c(-c4cc(O)cc5ccc(F)c(CC)c45)c4nn(C)cc4c13)C2` [Example 181, N-ethyl-5-[4-(8-ethyl-7-fluoro-3-hydroxy-1-naphthyl)-7-[[(2R,8S)-2-fluoro-1,2,3,5,6,7-hexahydropyrrolizin-8-yl]methoxy]-2,5-dimethyl-pyrazolo[4,3-f]quinazolin-9-yl]-4,6,7,8-tetrahydropyrazolo[1,5-a][1,4]diazepine-2-carboxamide], the IC50 against KRAS G12D and against KRAS WT was not above 0.01 µM in each case.

For `CCc1c(F)ccc2cc(O)cc(-c3c(C)c4nc(OC[C@@]56CCCN5C[C@H](F)C6)nc(N5CCCn6nc(C(=O)N7CCCC7)cc6C5)c4c4cn(C)nc34)c12` [Example 182, [5-[4-(8-ethyl-7-fluoro-3-hydroxy-1-naphthyl)-7-[[(2R,8S)-2-fluoro-1,2,3,5,6,7-hexahydropyrrolizin-8-yl]methoxy]-2,5-dimethyl-pyrazolo[4,3-f]quinazolin-9-yl]-4,6,7,8-tetrahydropyrazolo[1,5-a][1,4]diazepin-2-yl]-pyrrolidin-1-yl-methanone], the IC50 against KRAS G12D and against KRAS WT was not above 0.01 µM in each case.

As for `CCc1c(F)ccc2cc(O)cc(-c3cc4nc(OC[C@@]56CCCN5C[C@H](F)C6)nc(N5CCCC5CO)c4c4cn(C)nc34)c12` (stereo partly drawn) [Example 183, 5-ethyl-6-fluoro-4-[9-[2-(hydroxymethyl)pyrrolidin-1-yl]-2-methyl-7-[[(2R,8S)-2-fluoro-1,2,3,5,6,7-hexahydropyrrolizin-8-yl]methoxy]pyrazolo[4,3-f]quinazolin-4-yl]naphthalen-2-ol], the IC50 at KRAS G12D and against KRAS WT was not above 0.01 µM each time.

As to `C#Cc1c(F)ccc2cc(O)cc(-c3c(C)c4nc(OC[C@@]56CCCN5C[C@H](F)C6)nc(N5CCC[C@@](C)(O)C5)c4c4cn(C)nc34)c12` [Example 184, (3R)-1-[4-(8-ethynyl-7-fluoro-3-hydroxy-1-naphthyl)-2,5-dimethyl-7-[[(2R,8S)-2-fluoro-1,2,3,5,6,7-hexahydropyrrolizin-8-yl]methoxy]pyrazolo[4,3-f]quinazolin-9-yl]-3-methyl-piperidin-3-ol], the IC50 on KRAS G12D and against KRAS WT was not above 0.01 µM throughout.

With `C#Cc1c(F)ccc2cc(O)cc(-c3c(C)c4nc(OC[C@@]56CCCN5C[C@H](F)C6)nc(N5CCOCC(C)(O)C5)c4c4cn(C)nc34)c12` (stereo partly drawn) [Example 185, 4-[4-(8-ethynyl-7-fluoro-3-hydroxy-1-naphthyl)-7-[[(2R,8S)-2-fluoro-1,2,3,5,6,7-hexahydropyrrolizin-8-yl]methoxy]-2,5-dimethyl-pyrazolo[4,3-f]quinazolin-9-yl]-6-methyl-1,4-oxazepan-6-ol], the IC50 is 0.01 to 0.1 µM against KRAS G12D and not above 0.01 µM at KRAS WT.

On to `CCc1c(F)ccc2cc(O)cc(-c3cc4nc(OC[C@@]56CCCN5C[C@H](F)C6)nc(N5CC6CCC(C5)N6CC(C)O)c4c4cn(C)nc34)c12` (stereo partly drawn) [Example 186, 5-ethyl-6-fluoro-4-[7-[[(2R,8S)-2-fluoro-1,2,3,5,6,7-hexahydropyrrolizin-8-yl]methoxy]-9-[8-(2-hydroxypropyl)-3,8-diazabicyclo[3.2.1]octan-3-yl]-2-methyl-pyrazolo[4,3-f]quinazolin-4-yl]naphthalen-2-ol], for which the IC50 at KRAS G12D and against KRAS WT was 0.01 to 0.1 µM throughout.

On to `CCc1c(F)ccc2cc(O)cc(-c3c(F)c4nc(OCC5(CN6CCC(OC)CC6)CC5)nc(N5CCOCC(C)(O)C5)c4c4cn(C)nc34)c12` (stereo not drawn) [Example 187, 4-[4-(8-ethyl-7-fluoro-3-hydroxy-1-naphthyl)-5-fluoro-7-[[1-[(4-methoxy-1-piperidyl)methyl]cyclopropyl]methoxy]-2-methyl-pyrazolo[4,3-f]quinazolin-9-yl]-6-methyl-1,4-oxazepan-6-ol], for which the IC50 against KRAS G12D and on KRAS WT was not above 0.01 µM throughout.

As for `CCc1c(F)ccc2cc(O)cc(-c3c(F)c4nc(OCC5(CO)CC5)nc(N5CCOCC(C)(O)C5)c4c4cn(C)nc34)c12` (stereo not drawn) [Example 188, 4-[4-(8-ethyl-7-fluoro-3-hydroxy-1-naphthyl)-5-fluoro-7-[[1-(hydroxymethyl)cyclopropyl]methoxy]-2-methyl-pyrazolo[4,3-f]quinazolin-9-yl]-6-methyl-1,4-oxazepan-6-ol], the IC50 against KRAS G12D and on KRAS WT was not above 0.01 µM in each case.

Turning to `CCc1c(F)ccc2cc(O)cc(-c3c(F)c4nc(OCC5(CN6CCC(F)(F)C6)CC5)nc(N5CCOCC(C)(O)C5)c4c4cn(C)nc34)c12` (stereo not drawn) [Example 189, 4-[7-[[1-[(3,3-difluoropyrrolidin-1-yl)methyl]cyclopropyl]methoxy]-4-(8-ethyl-7-fluoro-3-hydroxy-1-naphthyl)-5-fluoro-2-methyl-pyrazolo[4,3-f]quinazolin-9-yl]-6-methyl-1,4-oxazepan-6-ol], the IC50 on KRAS G12D and against KRAS WT was 0.01 to 0.1 µM in each case.

With `CCc1c(F)ccc2cc(O)cc(-c3c(F)c4nc(OCC5(CN6CC[C@H](O)C6)CC5)nc(N5CCOCC(C)(O)C5)c4c4cn(C)nc34)c12` (stereo partly drawn) [Example 190, 4-[4-(8-ethyl-7-fluoro-3-hydroxy-1-naphthyl)-5-fluoro-2-methyl-7-[[1-[[(3S)-3-hydroxypyrrolidin-1-yl]methyl]cyclopropyl]methoxy]pyrazolo[4,3-f]quinazolin-9-yl]-6-methyl-1,4-oxazepan-6-ol], the IC50 on KRAS G12D and against KRAS WT was not above 0.01 µM throughout.

`CCc1c(F)ccc2cc(O)cc(-c3c(F)c4nc(OCC5(CN6CC(F)(F)C6)CC5)nc(N5CCOCC(C)(O)C5)c4c4cn(C)nc34)c12` (stereo not drawn) [Example 191, 4-[7-[[1-[(3,3-difluoroazetidin-1-yl)methyl]cyclopropyl]methoxy]-4-(8-ethyl-7-fluoro-3-hydroxy-1-naphthyl)-5-fluoro-2-methyl-pyrazolo[4,3-f]quinazolin-9-yl]-6-methyl-1,4-oxazepan-6-ol]: the values for the IC50 at KRAS G12D and against KRAS WT were not above 0.01 µM and 0.01 to 0.1 µM, respectively.
